Patent publication EP0946179B1 (ELI LILLY AND COMPANY, priority 1996, dated 1997)

What was measured:
5-HT1C receptor = biological target: T1, 5-HT1C receptor (Homo sapiens, UniProt P28335); assay: pharmacological studies, 5-HT1C receptor activity
T1 sequence (P28335 33-458): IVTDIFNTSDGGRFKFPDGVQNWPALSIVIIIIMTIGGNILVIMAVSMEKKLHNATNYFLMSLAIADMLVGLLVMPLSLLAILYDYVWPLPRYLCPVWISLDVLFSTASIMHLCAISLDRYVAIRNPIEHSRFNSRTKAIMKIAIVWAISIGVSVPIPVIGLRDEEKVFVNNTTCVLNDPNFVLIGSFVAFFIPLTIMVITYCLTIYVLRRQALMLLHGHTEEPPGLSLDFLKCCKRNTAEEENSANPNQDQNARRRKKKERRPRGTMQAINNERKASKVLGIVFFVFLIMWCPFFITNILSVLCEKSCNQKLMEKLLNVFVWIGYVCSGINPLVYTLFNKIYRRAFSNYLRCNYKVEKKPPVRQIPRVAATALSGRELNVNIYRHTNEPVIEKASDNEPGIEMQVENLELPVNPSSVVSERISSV

[1] = tested on: muscarinic cholinergic receptor; assay: pharmacological studies, muscarinic receptor activity
[2] = double-blind multicenter clinical trial, olanzapine versus placebo; format: in vivo; details: patients randomized to olanzapine or placebo
Source text: A double-blind multicenter clinical trial was designed to assess the safety and efficacy of olanzapine. Patients were randomized to olanzapine or placebo.

## Cc1cc2c(s1)Nc1ccccc1N=C2N1CCN(C)CC1 [olanzapine, 2-methyl-4-(4-methyl-1-piperazinyl)-10H-thieno[2,3-b][1,5] benzodiazepine]
5-HT1C receptor
  activity at the 5-HT1C receptor: active
[1]
  muscarinic cholinergic receptor activity: has muscarinic cholinergic receptor activity
[2]
  usefulness for the treatment of autism: can be useful for the treatment of autism
  usefulness for the treatment of mental retardation: can be useful for the treatment of mental retardation
